# Source: patent publication US8673910B2, “Proteasome inhibitors for selectively inducing apoptosis in cancer cells” (H. Lee Moffitt Cancer Center and Research Institute, priority 2008, dated 2014)
# “And” between values parts separate entries of the source, which are not always exact repeats. Equal entries are not always repeated. Where two headings read alike, the source gives them in different places.
# How the values were obtained:
# [1] = tested on: MCF-7 breast cancer xenografts; assay: Antitumor study of human tumor xenografts in nude mice (MCF-7); format: in vivo; conditions: 1 mpk i.p. 2× weekly; for average tumor size of MCF-7 derived xenografts: start at about 200 mm^3
# Description: Nude mice (Charles River Laboratories, Wilmington, Mass.) were maintained and treated in accordance with the Institutional Animal Care and Use Committee procedures and guidelines. Seven days before inoculation with MCF-7 cells, the animals were fully anesthetized for subcutaneous implantation of estradiol pellets (0.25 mg per pellet, 60-day release; Innovative Research of America, Sarasota, Fla.) on the dorsal surface of mice. Exponentially growing MCF-7 and A549 cells were harvested via trypsinization, pelleted at 300 g for 5 minutes, resuspended in sterile PBS (Invitrogen) at 10^7 cells per 100 μl, and injected into each flank of mice. The tumor xenografts were monitored with an electronic caliper every other day for 16 days. Tumor volume was calculated using the formula V=W^2L, where width is the largest diameter and length is the smallest diameter. When the tumors reached ˜200 mm^3, the animals were randomized and treatment schedules were implemented. […] 2 hours after the last injections animals were sacrificed via CO2 inhalation, and then tumors and livers were harvested and snap frozen in liquid N2.
# [2] = tested on: T80-Hras ovarian cancer cells; assay: MTT metabolism assay; format: cell-based; conditions: Homo sapiens, mean ± SD of 3 to 5 experiments, read-out: IC50 for cell viability measured by MTT assay
# [3] = tested on: HPDE6-C7-Kras (C7-Kras) pancreatic cancer cells; assay: MTT metabolism assay; format: cell-based; conditions: Homo sapiens, Pancreatic cancer cell, mean ± SD of 3 to 5 experiments, read-out: IC50 for cell viability measured by MTT assay
# Description: (§1) Cells were plated in 96-well plates in 100 μl medium and allowed to attach overnight. […] Media was aspirated after 24 or 72 hours and replaced with 100 μl complete media containing 1 mg/ml MTT and incubated for three hours at 37° C. in 5% CO2 humidified incubator. Media was then aspirated and DMSO was added. Cells were incubated for 10 min at room temperature while shaking, and the absorbance was determined at 540 nm using a μQuant spectrophotometric plate reader (Bio-TEK, Winooski, Vt.).
# [4] = tested on: p27^Kip1 protein in A549 tumors; assay: Western blot of p27Kip1 in A549 tumor lysates; format: in vivo; conditions: A549-bearing nude mice
# Description: (§2) Cell lysates (50 μg) were separated by SDS-PAGE and transferred to a nitrocellulose membrane, probed with p27^Kip1 and β-actin antibodies, and signals were visualized by enhanced chemoluminescence (ECL, Amersham, Piscataway, N.J.) according to the manufacturer's protocol.
# [5] = tested on: p27^Kip1 levels in A549 lung cancer cells; assay: Western blot of p27Kip1 in cultured A549 cells; format: cell-based, human; conditions: 48 h treatment
# Description: as §2
# [6] = target: T1, hepatic CT-L, T-L, and PGPH activities (Mus musculus, UniProt O09061+O55234+P70195+Q60692); assay: Proteasome activities in livers of tumor-bearing mice after in vivo treatment; design: species or system nude mice; conditions: livers extracted 2 hours after last i.p. injection (1 mpk)
# T1 construct: from tissue; host or cells: liver of tumour-bearing nude mice (Charles River)
# Description: To determine proteasome activity in whole cell extracts from cultured cells (5 μg) or tumor and liver tissue extracts (30 μg) from nude mice, the same assay was used except that the buffer was changed to 20 mM HEPES, 0.5 mM EDTA, pH 8.0.
# Whole cell extracts were prepared as follows: Cells were harvested, washed with PBS twice, and homogenized in a lysis buffer (50 mM Tris-HCl, pH 8.0, 5 mM EDTA, 150 mM NaCl, 0.5% NP-40) for 30 min at 4° C. Cell extracts from tumors and livers of nude mice were prepared in 50 mM HEPES, 0.5 mM EDTA, pH 8.0. Cell lysates were centrifuged at 12,000 g for 15 min, and the supernatants were collected as whole cell extracts.
# Nude mice (Charles River Laboratories, Wilmington, Mass.) were maintained and treated in accordance with the Institutional Animal Care and Use Committee procedures and guidelines. […] Exponentially growing MCF-7 and A549 cells were harvested via trypsinization, pelleted at 300 g for 5 minutes, resuspended in sterile PBS (Invitrogen) at 10^7 cells per 100 μl, and injected into each flank of mice. The tumor xenografts were monitored with an electronic caliper every other day for 16 days. Tumor volume was calculated using the formula V=W^2L, where width is the largest diameter and length is the smallest diameter. When the tumors reached ˜200 mm^3, the animals were randomized and treatment schedules were implemented. […]
# [7] = tested on: MCF-7/MCF-10A, T-80-Hras/T-80, C7-Kras/C7 cells; assay: TUNEL assay, apoptosis in cancer and non-transformed cell pairs; format: cell-based, human; conditions: 3 pairs of cell lines, 24 h
# Description: Terminal deoxynucleotidyl transferase-mediated nick-end labeling (TUNEL) was used to determine the extent of DNA strand breaks (Kazi et al., 2004). The assay was performed with the APO-Direct Kit following the manufacturer's instructions. In brief, the harvested cells were fixed in 1% paraformaldehyde for 45 minutes on ice, washed twice with PBS, and then fixed again in 70% ethanol at −20° C. overnight. The cells were then incubated in DNA labeling solution (containing terminal deoxynucleotidyl transferase (TdT) enzyme, fluorescence-conjugated dUTP and reaction buffer) for 60 minutes at 37° C. After rinsing the cells to remove the DNA labeling solution, the cells were incubated with the propidium iodide/RNase A solution, incubated for 30 minutes at room temperature in the dark, and analyzed by flow cytometry within 3 hours of staining.
# [8] = tested on: MCF-7 breast cancer cells; assay: MTT metabolism assay; format: cell-based, human; conditions: Homo sapiens
# Description: as §1
# Cells were plated in 96-well plates in 100 μl medium and allowed to attach overnight. Cells were then incubated for 72 h with varying concentrations of PI-083, YG1-080, YG1-075, HL2-090-2, HL2-090-4, HL2-090-6, and HL2-090-9 or vehicle control (DMSO). Media was aspirated and replaced with 100 μl complete media containing 1 mg/ml MTT and incubated for three hours at 37° C. in 5% CO2 humidified incubator. Media was then aspirated and DMSO was added. Cells were incubated for 10 min at room temperature while shaking, and the absorbance was determined at 540 nm using a μQuant spectrophotometric plate reader (Bio-TEK, Winooski, Vt.).
# [9] = tested on: primary multiple myeloma cells isolated from patients' bone marrow; assay: Cell death of primary multiple myeloma cells (Trypan blue); format: cell-based, human; conditions: read-out: Cell death 24 h (IC50 values); primary MM cells, 24 h treatment; Table 5: one value per patient; mean over patients
# Description: MM patients' bone marrow samples were collected from Liquid Tissue Bank facility. Freshly isolated bone marrow samples were fractionated by Ficoll-Paque (Pharmacia Biotech, Piscataway, N.J.) sedimentation. The mononuclear cellular layer was then resuspended in RPMI-1640 containing 10% heat-inactivated fetal bovine serum, 10 mM HEPES (pH 7.4), sodium pyruvate, L-glutamine, and 1% penicillin-streptomycin.
# Adherent cells were harvested using trypsinization and pooled with suspension cells from media supernatant by pelleting at 300 g for 5 min at 4° C. The cells were then resuspended in an appropriate volume of media by pipetting gently up and down. Two 20 μl aliquots were removed and combined with an equal volume of 0.4% Trypan blue and allowed to mix for 1 minute. A 10 μl volume was loaded onto a hemacytometer and cells were scored as live or dead based on Trypan blue dye exclusion and the percentage of dead cell number to total cell number was calculated. To calculate the percentage of proliferation, the number of live cells in the treated samples was divided by the number of live cells in the untreated vehicle control.
# [10] = target: T2, CT-L activity of the proteasome in MCF-7 human breast cancer cells (Homo sapiens, UniProt P20618+P28074); assay: Proteolytic activity in cell lysates of treated intact MCF-7 cells; format: cell-based; conditions: intact cells treated 16 h, CT-L measured in cell lysates; two determinations where two values
# T2 construct: endogenous in cells; host or cells: MCF-7
# Description: Human MCF-7 breast cancer cells were cultured in DMEM medium containing 10% fetal calf serum (FCS) and 100 units/ml of penicillin and 100 μg/ml of streptomycin. Cells were maintained at 37° C. in a humidified incubator in an atmosphere of 5% CO2. Cells were treated with different concentrations of PI-083, YG1-080, YG1-075, HL2-090-2, HL2-090-4, HL2-090-6, and HL2-090-9 or vehicle control (DMSO) for 16 h.
# Intact cells were treated with compounds and lysates prepared as described above. Cell lysates (5 μg) was incubated with 20 μM Suc-Leu-Leu-Val-Tyr-AMC for the CT-L activity for 1 h at 37° C. in 100 μl of assay buffer (50 mM Tris-HCl, pH 7.6). After incubation, production of hydrolyzed 7-amido-4-methyl-coumarin (AMC) groups was measured using a WALLAC Victor^2 1420 Multilabel Counter with an excitation filter of 355 nm and an emission filter of 460 nm (Perkin Elmer Life Sciences, Turku, Finland).
# [11] = MCF7, 24 h, MCF-7, 24 h, mean ± SD of 3 to 5 experiments, read-out: IC50 for cell viability measured by MTT assay
# [12] = MCF7, 72 h, MCF-7, 72 h, mean ± SD of 3 to 5 experiments (Table 3), read-out: IC50 for cell viability measured by MTT assay
SMILES,"antitumor effect in MCF-7 xenografts, in words [1]",average tumor size of MCF-7 derived xenografts [1],IC50 ([2]; 24 h) [µM],IC50 ([3]; 24 h) [µM],IC50 ([3]; 72 h) [µM],treated tumors with dramatic upregulation of p27^Kip1 protein [4],p27^Kip1 levels in cultured A549 lung cancer cells [5],effect on proteasome activities in livers of tumor-bearing mice [6],apoptosis (TUNEL) [7],"IC50 [8, 11] [µM]","IC50 [8, 12] [µM]","tumor growth inhibition, MCF-7 xenografts [1] [%]",IC50 ([2]; 72 h) [µM],IC50 [9],IC50 [10],"IC50 ([8]; MCF7, 72 h, MCF-7, 72 h (Table 6), read-out: IC50 for cell viability measured by MTT assay in MCF-7 human breast cancer cells) [µM]"
"CC(C)C[C@H](NC(=O)[C@H](Cc1ccccc1)NC(=O)c1cnccn1)B(O)O [Bortezomib, reference compound]",appeared to be ineffective in the nude mouse model,"1,448±145 mm^3",> 30,> 30,0.028 ± 0.006,4 out of 4,marked increase,"significantly inhibited hepatic CT-L, T-L, and PGPH activities",induced little apoptosis in any of the cell lines,> 30,8.6 ± 1.41,,,,,
"O=C1C(Cl)=C(Nc2ccc(S(=O)(=O)Nc3ccccn3)cc2)C(=O)c2ccccc21 [PI-083, 4-(3-chloro-1,4-dioxo-1,4-dihydronaphthalen-2-ylamino)-N-(pyridin-2-yl)benzenesulfonamide]",,about 396±137 mm^3,1.5 ± 0.57,2.4 ± 0.23,1.9 ± 0.2,,,did not inhibit liver proteasome activities,,4.5 ± 0.82,2.2 ± 1.1,84,2.1 ± 0.4,6.2 µM and 2.7 µM and 1.1 µM and 2.4 µM and 1.7 µM and 4.1 µM and 9 µM and 7.3 µM and 3.2 µM,6.2 µM and 5.6 µM,2.31 ± 0.1
